Source: patent US8420653B2, “Pyrimidine compounds and their uses” (Orchid Chemicals & Pharmaceuticals Limited, priority 2008, dated 2013)

Legend:
[1] = system: purified recombinant COX-1; assay: COX-1 enzyme based assay; assay type: biochemical
Protocol: COX-1 and COX-2 enzyme based assays were carried out to check the inhibitory potential of the test compounds on the production of prostaglandin by purified recombinant COX-1/COX-2 enzyme (Proc. Nat. Acad. Sci. USA, 88, 2692-2696, 1991; J. Clin. Immunoassay 15, 116-120, 1992). In this assay, the potential of the test compound to inhibit the production of prostaglandin either by COX-1 or COX-2 from arachidonic acid (substrate) was measured. This was an enzyme based in-vitro assay to evaluate selective COX inhibition with good reproducibility.
Arachidonic acid was converted to PGH2 (Intermediate product) by COX1/COX-2 in the presence or absence of the test compound. The reaction was carried out at 37° C. and after 2 minutes it was stopped by adding 1M HCl. Intermediate product PGH2 was converted to a stable prostanoid product PGF2α by SnCl2 reduction. The amount of PGF2α produced in the reaction was inversely proportional to the COX inhibitory potential of the test compound. The prostanoid product was quantified via enzyme immunoassay (EIA) using a broadly specific antibody that binds to all the major forms of prostaglandin, using Cayman ELISA kit as per the procedure outlined by the manufacturer (Cayman Chemicals, Ann Arbor, USA).

IL-6 = assay: In vitro measurement of Interleukin-6 in human PBMC; assay type: cell-based; conditions: Table XVa summary
Protocol: In Vitro Measurement of Interleukin-6 (IL-6)
This assay determines the effect of test compounds on the production of IL-6 in human PBMC (Physiol. Res. 52, 593-598, 2003). Compounds were tested for their ability to inhibit the activity of IL-6 in human PBMC. PBMC were isolated from blood using BD Vacutainer CPT™ Cell preparation tube (BD Bio Science) and suspended in RPMI medium. The test compounds were pre-incubated with PBMC (0.5 million/incubation well) for 15 minutes at 37° C. and then stimulated with Lipopolysaccharide (Escherichia coli: B4; 1 μg/ml) for 18 hours at 37° C. in 5% CO2. The levels of IL-6 in cell culture medium were estimated using enzyme-linked immunosorbent assay performed in a 96 well format as per the procedure of the manufacturer (Cayman Chemical, Ann Arbor, USA).

CCOC(=O)C1CCN(c2nc(C(F)(F)F)nc(-c3ccc(F)cc3)c2-c2cccc(S(N)(=O)=O)c2)CC1 [Example 59, Ethyl-1-[5-(3-aminosulfonylphenyl)-6-(4-fluorophenyl)-2-(trifluoromethyl)pyrimidin-4-yl]piperidine-4-carboxylate]
% Inhibition in rEnzyme Assay COX-1 ([1]; 10 μM): 32% | COX1 at 10 μm ([1]; Table XVa summary, 10 μm): 32 | IL-6 at 10 μm (IL-6): 37
